From patent publication US9533987B2, “Heterocyclic derivates” (KALVISTA PHARMACEUTICALS LIMITED, priority 2013, dated 2017) come the findings set out here.

pIC50: −log10 of the molar value. Where only a bound is given, the exact number is not on record here.

Type in all cases: biochemical
One assay addresses Human plasma kallikrein (Homo sapiens (Human), UniProt P03952). The experiment in a line: Determination of the IC50 for plasma kallikrein (fluorogenic substrate H-DPro-Phe-Arg-AFC). To be noted: 37° C., read-out: IC50 (human PKaI). As for the experimental part: Determination of the IC50 for Plasma Kallikrein
Human plasma kallikrein (Protogen) was incubated at 37° C. with the fluorogenic substrate H-DPro-Phe-Arg-AFC and various concentrations of the test compound. Residual enzyme activity (initial rate of reaction) was determined by measuring the change in […] at 410 nm and the IC50 value for the test compound was determined.

In another assay the target is Human KLK1 (Homo sapiens (Human), UniProt P06870). The experiment in a line: Determination of the IC50 for KLK1 (fluorogenic substrate H-DVal-Leu-Arg-AFC). To be noted: 37° C. As for the experimental part: Determination of the IC50 for KLK1
Human KLK1 (Callbiochem) was incubated at 37° C. with the fluorogenic substrate H-DVal-Leu-Arg-AFC and various concentrations of the test compound. Residual enzyme activity (initial rate of reaction) was determined by measuring the change in […] at 410 nm and the IC50 value for the test compound was determined.

The target of the next assay is Factor XIIa (Homo sapiens (Human), UniProt P00748). The experiment in a line: Determination of enzyme selectivity, Factor XIIa. The conditions noted are these: substrate at Km concentration. As for the experimental part:
Determination of Enzyme Selectivity
Human serine protease enzymes plasmin, thrombin, trypsin, Factor Xa and Factor XIIa were assayed for enzymatic activity using an appropriate fluorogenic substrate. Protease activity was measured by monitoring the accumulation of liberated fluorescence from the substrate over 5 minutes. The linear rate of fluorescence increase per minute was expressed as percentage (%) activity. The Km for the cleavage of each substrate was determined by standard transformation of the Michaelis-Menten equation.

Sequence of Factor XIIa (P00748 373-615): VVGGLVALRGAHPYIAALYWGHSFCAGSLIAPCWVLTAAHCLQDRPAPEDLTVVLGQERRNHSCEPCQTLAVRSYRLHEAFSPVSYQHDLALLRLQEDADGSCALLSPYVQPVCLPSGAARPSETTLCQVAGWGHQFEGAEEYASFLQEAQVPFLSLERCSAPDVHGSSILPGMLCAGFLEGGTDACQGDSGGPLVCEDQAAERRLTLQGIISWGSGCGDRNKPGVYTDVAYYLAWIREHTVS
Sequence of Human KLK1 (P06870 25-262): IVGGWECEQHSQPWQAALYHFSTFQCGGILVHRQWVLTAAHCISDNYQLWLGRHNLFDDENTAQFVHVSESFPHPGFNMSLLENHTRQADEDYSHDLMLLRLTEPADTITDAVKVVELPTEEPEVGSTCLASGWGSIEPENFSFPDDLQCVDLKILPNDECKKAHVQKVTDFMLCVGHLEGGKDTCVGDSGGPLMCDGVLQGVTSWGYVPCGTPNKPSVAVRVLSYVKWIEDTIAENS
Sequence of Human plasma kallikrein (P03952 391-638): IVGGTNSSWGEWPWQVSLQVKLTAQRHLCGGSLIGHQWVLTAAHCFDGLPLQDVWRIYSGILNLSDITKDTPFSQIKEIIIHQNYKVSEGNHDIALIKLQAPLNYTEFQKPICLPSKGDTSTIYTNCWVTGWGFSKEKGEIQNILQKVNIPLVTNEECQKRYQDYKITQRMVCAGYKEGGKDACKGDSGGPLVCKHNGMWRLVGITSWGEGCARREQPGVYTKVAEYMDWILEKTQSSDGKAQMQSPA
Sequence of Human plasma kallikrein (P03952 20-390 partner): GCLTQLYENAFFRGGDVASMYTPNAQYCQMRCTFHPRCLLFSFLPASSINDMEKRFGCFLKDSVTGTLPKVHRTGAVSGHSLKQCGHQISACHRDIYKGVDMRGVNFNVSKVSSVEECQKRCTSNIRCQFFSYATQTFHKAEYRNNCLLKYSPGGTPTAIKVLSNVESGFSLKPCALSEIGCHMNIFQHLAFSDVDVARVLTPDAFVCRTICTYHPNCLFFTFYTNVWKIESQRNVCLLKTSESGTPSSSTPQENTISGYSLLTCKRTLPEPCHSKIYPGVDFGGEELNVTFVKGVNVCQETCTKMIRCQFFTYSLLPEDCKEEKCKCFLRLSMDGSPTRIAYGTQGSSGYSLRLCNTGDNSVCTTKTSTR

`CCn1c(C(=O)NCc2ccc3c(N)nccc3c2)cc(C)c1Cc1ccc(N2CCCC2)nc1` [Example 30, 1-Ethyl-4-methyl-5-(6-pyrrolidin-1-yl-pyridin-3-ylmethyl)-1H-pyrrole-2-carboxylic acid (1-amino-isoquinolin-6-ylmethyl)-amide]: the values for the pIC50 on Human plasma kallikrein and at Human KLK1 were 5.83 and 5.24, respectively. The 50% inhibitory concentration (IC50) against Factor XIIa was > 10000 nM.
For `Cc1cnn(Cc2ccc(Cn3cc(C(=O)NCc4c(C)nc5[nH]ccc5c4C)cn3)cc2)c1` [Example 118, 1-[4-(4-Methyl-pyrazol-1-ylmethyl)-benzyl]-1H-pyrazole-4-carboxylic acid (4,6-dimethyl-1H-pyrrolo[2,3-b]pyridin-5-ylmethyl)-amide] the same measures were 7.85, < 4.40 and > 40000 nM.
For the compound `Cc1cnn(Cc2ccc(Cn3cc(C(=O)NCc4ccc5c(N)nccc5c4)c(C4CCC4)n3)cc2)c1` [Example 14, 3-Cyclobutyl-1-[4-(4-methyl-pyrazol-1-ylmethyl)-benzyl]-1H-pyrazole-4-carboxylic acid (1-amino-isoquinolin-6-ylmethyl)-amide], the negative logarithm of the IC50 (pIC50) at Human plasma kallikrein is 8.34; against Human KLK1, 5.22. In addition, the IC50 at Factor XIIa was > 10000 nM.
Turning to `Cc1cnn(Cc2ccc(Cn3nc(C)c(C(=O)NCc4ccc5c(N)nccc5c4)c3C)cc2)c1` [Example 34, 3,5-Dimethyl-1-[4-(4-methyl-pyrazol-1-ylmethyl)-benzyl]-1H-pyrazole-4-carboxylic acid (1-amino-isoquinolin-6-ylmethyl)-amide], the pIC50 at Human plasma kallikrein is 6.85; against Human KLK1, 4.74. Moreover, the 50% inhibitory concentration (IC50) against Factor XIIa is > 40000 nM.
In the case of `Cc1cnn(Cc2ccc(Cn3cc(C(=O)NCc4ccc5c(N)nccc5c4)c(C(C)C)n3)cc2)c1` [Example 13, 3-Isopropyl-1-[4-(4-methyl-pyrazol-1-ylmethyl)-benzyl]-1H-pyrazole-4-carboxylic acid (1-amino-isoquinolin-6-ylmethyl)-amide], the negative logarithm of the IC50 (pIC50) at Human plasma kallikrein is 8.67; on Human KLK1, 5.29. The IC50 against Factor XIIa is > 10000 nM.
In the case of `Nc1nccc2cc(CNC(=O)c3cn(Cc4ccnc(N5CCC(F)(F)C5)c4)nc3C(F)(F)F)ccc12` [Example 56, 1-[2-(3,3-Difluoro-pyrrolidin-1-yl)-pyridin-4-ylmethyl]-3-trifluoromethyl-1H-pyrazole-4-carboxylic acid (1-amino-isoquinolin-6-ylmethyl)-amide], the negative-log IC50 (pIC50) was 7.14 on Human plasma kallikrein and < 5.00 against Human KLK1. On Factor XIIa, the IC50 is > 10000 nM.
As for `CCn1c(C(=O)NCc2ccc3c(N)nccc3c2)cc(C)c1Cc1ccc(Cn2ccccc2=O)cc1` [Example 6, 1-Ethyl-4-methyl-5-[4-(2-oxo-2H-pyridin-1-ylmethyl)-benzyl]-1H-pyrrole-2-carboxylic acid (1-amino-isoquinolin-6-ylmethyl)-amide], the negative logarithm of the IC50 (pIC50) at Human plasma kallikrein and against Human KLK1 was 5.02 throughout. The IC50 on Factor XIIa was > 10000 nM.
As to `O=C(NCc1cnc2[nH]ccc2c1)c1cnn(Cc2cccc(Oc3ccccc3)c2)c1` [Example 108, 1-(3-Phenoxy-benzyl)-1H-pyrazole-4-carboxylic acid (1H-pyrrolo[2,3-b]pyridin-5-ylmethyl)-amide], the pIC50 was 4.66 on Human plasma kallikrein and 4.69 against Human KLK1. On Factor XIIa, the IC50 is > 40000 nM.
For the compound `Cc1cnn(Cc2ccc(Cn3cc(C(=O)NCc4ccc5[nH]c(C)cc5c4)c(C(F)(F)F)n3)cc2)c1` [Example 110, 1-[4-(4-Methyl-pyrazol-1-ylmethyl)-benzyl]-3-trifluoromethyl-1H-pyrazole-4-carboxylic acid (2-methyl-1H-indol-5-ylmethyl)-amide], the values for the pIC50 at Human plasma kallikrein and on Human KLK1 were 6.25 and < 5.00, respectively. Besides, at Factor XIIa, the concentration for half-maximal inhibition (IC50) is > 10000 nM.
Take `Cc1cnn(Cc2ccc(Cn3cc(C(=O)NCc4cccc5[nH]ncc45)c(C(F)(F)F)n3)cc2)c1` [Example 124, 1-[4-(4-Methyl-pyrazol-1-ylmethyl)-benzyl]-3-trifluoromethyl-1H-pyrazole-4-carboxylic acid (1H-indazol-4-ylmethyl)-amide]: the negative-log IC50 (pIC50) on Human plasma kallikrein is 6.84; on Human KLK1, 5.14. For the same compound, at Factor XIIa, the 50% inhibitory concentration (IC50) was > 10000 nM.
For the compound `Cc1nc(C)c(N(C)Cc2ccc(Cn3cc(C(=O)NCc4ccc5c(N)nccc5c4)cn3)cc2)s1` [Example 46, 1-(4-{[(2,4-Dimethyl-thiazol-5-yl)-methyl-amino]-methyl}-benzyl)-1H-pyrazole-4-carboxylic acid (1-amino-isoquinolin-6-ylmethyl)-amide], the half-inhibitory concentration (IC50) at Factor XIIa was > 40000 nM.
Regarding `O=C(NCc1cnc2[nH]ccc2c1)c1cn(Cc2ccc(N3CCCC3)nc2)nc1C(F)(F)F` [Example 114, 1-(6-Pyrrolidin-1-yl-pyridin-3-ylmethyl)-3-trifluoromethyl-1H-pyrazole-4-carboxylic acid (1H-pyrrolo[2,3-b]pyridin-5-ylmethyl)-amide], the negative-log IC50 (pIC50) is 6.52 on Human plasma kallikrein and 5.92 against Human KLK1.
The corresponding values for `CCOc1ccc(Cn2cc(C(=O)NCc3ccc4c(N)nccc4c3)c(N)n2)cn1` [Example 98, 3-Amino-1-(6-ethoxy-pyridin-3-ylmethyl)-1H-pyrazole-4-carboxylic acid (1-amino-isoquinolin-6-ylmethyl)-amide] are 7.20 and 5.50.
On to `Nc1nccc2cc(CNC(=O)c3cn(Cc4ccc(Oc5ccccc5)nc4)nc3C3CC3)ccc12` [Example 93, 3-Cyclopropyl-1-(6-phenoxy-pyridin-3-ylmethyl)-1H-pyrazole-4-carboxylic acid (1-amino-isoquinolin-6-ylmethyl)-amide], for which the pIC50 was 7.12 on Human plasma kallikrein and < 5.00 on Human KLK1.
For the compound `Cc1cnn(Cc2ccc(Cn3cc(C(=O)NCc4ccc5c(N)nccc5c4)c(=O)[nH]3)cc2)c1` [Example 19, 1-[4-(4-Methyl-pyrazol-1-ylmethyl)-benzyl]-3-oxo-2,3-dihydro-1H-pyrazole-4-carboxylic acid (1-amino-isoquinolin-6-ylmethyl)-amide], the results for the pIC50 at Human plasma kallikrein and at Human KLK1 were 6.00 and < 5.00, respectively.
As to `CCOc1ncc(Cn2cc(C(=O)NCc3ccc4c(N)nccc4c3)c(C(F)(F)F)n2)cc1F` [Example 75, 1-(6-Ethoxy-5-fluoro-pyridin-3-ylmethyl)-3-trifluoromethyl-1H-pyrazole-4-carboxylic acid (1-amino-isoquinolin-6-ylmethyl)-amide], the results for the pIC50 on Human plasma kallikrein and at Human KLK1 were 7.01 and 5.89, respectively.
As to `Nc1nccc2cc(CNC(=O)c3cn(Cc4ccc(Cn5cccn5)nc4)nc3C(F)(F)F)ccc12` [Example 79, 1-(6-Pyrazol-1-ylmethyl-pyridin-3-ylmethyl)-3-trifluoromethyl-1H-pyrazole-4-carboxylic acid (1-amino-isoquinolin-6-ylmethyl)-amide], the negative logarithm of the IC50 (pIC50) on Human plasma kallikrein was 8.64; against Human KLK1, < 5.00.
`O=C(NCc1n[nH]c2ccc(Cl)cc12)c1cn(Cc2ccc(N3CCCC3)nc2)nc1C(F)(F)F` [Example 128, 1-(6-Pyrrolidin-1-yl-pyridin-3-ylmethyl)-3-trifluoromethyl-1H-pyrazole-4-carboxylic acid (5-chloro-1H-indazol-3-ylmethyl)-amide]: the pIC50 is 7.60 on Human plasma kallikrein and < 5.00 at Human KLK1.
